According to US7094405B1, “Peptides which elicit a high neutralizing antibody titer, cytotoxic T lymphocyte response and T helper cell response in a broad range of MHC type recipients” (priority 1986, dated 2006):
Like-named read-outs stand apart in the source and are kept apart here.

Experiments:
[1] = system: gp160-expressing 15-12 BALB/c fibroblast cell line; assay type: cell-based; conditions: spleen cells of B10.A(5R) mice immunized with 20 nmoles PCLUS4-18, restimulated 6 days
Description: The resulting effector cells were tested on the gp160-expressing 15-12 BALB/c fibroblast cell line or on neo-only transfected fibroblast cells (not shown) as targets (FIG. 9B). […] SEM of triplicate wells was less than 7.3% of the mean.

Peptide 18 = conditions: for ELISA: Mean p18 Specific Absorbance ± S.E.M.: 31 days after single immunization with 20 nanomole peptide, 5 mouse sera at 1:1000 serum dilution
Description: ELISA. Wells of round bottom flexible PVC microtiter plates (#3912 Falcon Labware, Oxnard, Calif.) were coated overnight at 4° C. with 100 μl of 10 μM Peptide 18, substituted peptide 18, cluster peptide 3, cluster peptide 6, 0.2 μg/ml recombinant gp 120 (ABT, Advanced Biotechnologies, Mass.) or 2 μM sperm whale myoglobin in 0.1 M carbonate buffer pH 9.6. […] The plates were blocked with 1% BSA in phosphate buffered saline (PBS) for 1-1.5 h. at 4° C. and washed with PBS containing 0.05% Tween 20 and 1% BSA (PBSTB). Next, 100 μl of test serum was added to duplicate wells and incubated for 1-1.5 h. at 4° C. Test sera were assayed at 10 fold dilutions in PBSTB ranging from 1:100-1:10,000. The wells were then washed with 200 μl PBSTB 10 times using an automatic plate washer (BioRad Model 1550) and incubated for 1 h at 4° C. with 100 μl alkaline phosphatase-conjugated goat anti-mouse IgG (Promega, Madison, Wis.) diluted 1:7500 in PBSTB. After 10 washes, bound antibodies were detected by the addition of 100 μl of 1 mg/ml paranitrophenyl phosphate as substrate. The optical density at 405 nm was read with an ELISA reader. Specific absorbance was determined as the mean optical density at 405 nm on the relevant antigen coated wells minus the optical density 405 nm on nonrelevant sperm whale myoglobin coated wells.
(§1) Immunizations. Mice were immunized intraperitoneally with 20 nanomoles of each peptide emulsified 1:1 in Freund's Complete Adjuvant (CFA). At days 21 and 31 post immunization blood was drawn by retroorbital bleed, allowed to clot and the serum removed and frozen at −20° C.

HIV-1 IIIB = experiment: Neutralization of HIV-1 IIIB by immune sera, quantitative infectivity microassay using CEM-SS cells; assay type: in vivo; conditions: 31 days after single immunization with 20 nanomole peptide
Description: as §1
Neutralization assays of HIV-1. The quantitative infectivity microassay using CEM-SS cells was performed as described previously (52). […] The mixtures were added to duplicate wells containing 5×10^4 DEAE-dextran treated CEM-SS cells for 1 h at 37° C., after which the virus-antibody mixtures were removed and replaced with medium, and the cells cultured only in complete medium for 5 days (for HIV-1 IIIB) or 4 days (for HIV-1 MN, determined to be optimal for each virus strain) at 37° C. in 5% CO2. Units of infectious virus were quantitated by subsequent syncytia formation of infected cells under an inverted microscope. […] The assay measures neutralization of cell-free virus in the first incubation, not inhibition of syncytium formation, which is only the readout for enumerating infectious virus. […]

[2] = system: BALB/c.3T3 transfectants expressing the whole gp160 protein (cell line 15-12) or P18 pulsed 18neo cells; assay type: in vivo, mice
Description: Mice 8-20 weeks old were immunized subcutaneously at the tail base with 20 nmoles of each peptide mixed with QS21 (15 μg), the highly purified saponin fraction from the soap bark tree Quillaja saponaria, which retains the greatest adjuvant activity but is non-toxic (103). […] Cytolytic activity of in vitro secondary CTL was measured as described previously (104) using a 6 hr. assay with ^51Cr-labeled targets. […] Maximum release was determined from supernatants of cells that were lysed by the addition of 5% Triton X-100. Spontaneous release was determined from targets cells incubated without added effectors cells. The assay was performed in triplicate, with 5000 target cells per well.
Background lysis on control 18neo fibroblasts in the absence of peptide was less than 8%. SEM of triplicate wells was less than 7.2% of the mean.

[3] = system: peripheral blood lymphocytes of HIV-positive, influenza positive humans; conditions: cited from earlier work; for tested cases with significant IL-2 responses: peripheral blood lymphocytes of HIV-positive, influenza positive humans, previous study (42)

**Q.** For RIQRGPGRAFVTIGK [Peptide P18], which “induction of CTL activity on in vitro restimulation (in words)” value [1] is on record?
**A.** not

**Q.** And the “ELISA: Mean p18 Specific Absorbance ± S.E.M.” value (Peptide 18; B10.A(5R) (A^bE^b) mice)?
**A.** 0.00

**Q.** And the “ELISA: Mean p18 Specific Absorbance ± S.E.M.” value (Peptide 18; B10.BR or B10.A (A^kE^k) mice)?
**A.** 0.00

**Q.** What about the “ELISA: Mean p18 Specific Absorbance ± S.E.M.” value (Peptide 18; B10.HTT (A^aE^a) mice) of the same sequence?
**A.** 0.00

**Q.** What about the “ELISA: Mean p18 Specific Absorbance ± S.E.M.” value (Peptide 18; BALB/c or B10.D2 (A^dE^d) mice) of the same sequence?
**A.** 0.00

**Q.** What about the “peptide 18 specific antibody response (in words)” value (Peptide 18; mice of four strains immunized with 20 nanomoles of construct) of the same sequence?
**A.** no peptide 18 specific antibody was detected

**Q.** And the “No. of mice with positive neutralizing titers/total tested” value (HIV-1 IIIB; B10.BR or B10.A (A^kE^k) mice)?
**A.** (0/5)

**Q.** And the “No. of mice with positive neutralizing titers/total tested” value (HIV-1 IIIB; BALB/c or B10.D2 (A^dE^d) mice)?
**A.** (0/5)

**Q.** What about the “CTL activity, linkage requirement experiment (in words)” value ([2]; B10.D2 (PCLUS3 series) or B10.A(5R) (PCLUS4 series) mice, QS21, restimulated with 0.1 μM P18 and rIL2) of the same sequence?
**A.** negligible

**Q.** And the “CTL activity after single immunization in QS21 (in words)” value ([2]; B10.D2, B10.A(5R), B10.S(9R) mice, restimulated with P18, E:T up to 60:1)?
**A.** only marginal CTL activity

**Q.** For KQIINMWQEVGKAMYAPPISGQIR [PCLUS3], which “tested cases with significant IL-2 responses” value [3] is on record?
**A.** 73%

**Q.** For “AVAEGTDRVIEVVQGAYRAIRHIPRRIRQGLER [PCLUS6]”, which “tested cases with significant IL-2 responses” value [3] is on record?
**A.** 58%

**Q.** For RDNWRSELYKYKVVKIEPLGVAPT [PCLUS4], which “induction of CTL activity on in vitro restimulation (in words)” value [1] is on record?
**A.** did not induce any CTL activity

**Q.** And the “tested cases with significant IL-2 responses” value [3]?
**A.** 52%

**Q.** Which results are given for EQMHEDIISLWDQSLKPCVK [PCLUS 1]?
**A.** donors in which IL-2 production was stimulated ([3]; HIV seropositive, flu-positive donors): 23 of 36; tested cases with significant IL-2 responses [3]: 64%
